Laboratory results: patent US8097422B2, “Kir channel modulators” (Salk Institute for Biological Studies, priority 2007, dated 2012)

Experiments:
[1] = molecular target: T1, GIRK2 L257W mutant channel (Mus musculus, UniProt P48542, L257W); experiment: whole-cell patch clamp, GIRK2 L257W mutant channel; assay type: cell-based; settings: n=9; for modulation of GIRK2 L257W, percentage change from basal current (negative = inhibition): alcohols as for wild type (100 mM)
T1 construct: expressed in transfected cells; host or cells: HEK293T
T1 sequence (P48542 1-425 L257W): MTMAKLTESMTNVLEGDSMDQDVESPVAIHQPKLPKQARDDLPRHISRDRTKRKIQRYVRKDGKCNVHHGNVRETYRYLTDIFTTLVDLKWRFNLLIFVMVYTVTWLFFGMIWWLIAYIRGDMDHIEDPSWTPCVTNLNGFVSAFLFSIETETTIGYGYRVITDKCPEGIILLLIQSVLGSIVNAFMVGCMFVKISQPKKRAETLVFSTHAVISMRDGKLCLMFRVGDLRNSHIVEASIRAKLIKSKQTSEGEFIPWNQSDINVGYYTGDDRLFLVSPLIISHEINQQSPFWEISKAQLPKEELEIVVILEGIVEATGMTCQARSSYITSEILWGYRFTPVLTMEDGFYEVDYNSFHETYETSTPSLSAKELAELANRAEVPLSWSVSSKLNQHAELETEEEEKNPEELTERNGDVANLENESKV
Procedure: Point mutations were introduced by Quickchange site directed mutagenesis kit (Stratagene). The GIRK2 PIP mutant was generated by overlap-PCR method. […] Mutations were confirmed by automated DNA sequencing methods. […] Cells were plated in a 12 well dish, and were transiently transfected using Lipofectamine 2000 (Invitrogen). After 12-24 hrs, cells were re-plated to 12-mm glass coverslips coated with poly-D-[…] microgram/ml). […] The cells were co-transfected with 0.04 micrograms of eYFP cDNA to identify transfected cells. 0.8 micrograms of Muscarinic Receptor 2 (M2R) was also co-transfected for experiments with Carbachol. […] Whole-cell patch clamp recordings were performed 24-72 hrs after transfection. […] Alcohols, 5 μM Carbachol, and 1 mM BaCl2 (diluted in 20K solution) were applied from outside the cell with the rapid perfusion system (Warner Instruments). […] Current-voltage relationships also were obtained from the ramp protocol. This protocol was used to measure the inwardly rectifying currents at -100 mV and to ensure stability of recording by monitoring a reversal potential and inward rectification. […] Alcohol and Carbachol modulated currents were measured by averaging two consecutive current readings upon reaching steady state, and subtracting the averaged basal current before and after the application of modulator.

IRK1 channel = molecular target: T2, IRK1 channel (Mus musculus, UniProt P35561); experiment: whole-cell patch clamp, HEK293T cells transfected with IRK1; assay type: cell-based; settings: n=5; for inhibition of IRK1 channel, percentage inhibition: equimolar 50 mM alcohol series
T2 construct: expressed in transfected cells; host or cells: HEK293T
T2 sequence (P35561 1-428): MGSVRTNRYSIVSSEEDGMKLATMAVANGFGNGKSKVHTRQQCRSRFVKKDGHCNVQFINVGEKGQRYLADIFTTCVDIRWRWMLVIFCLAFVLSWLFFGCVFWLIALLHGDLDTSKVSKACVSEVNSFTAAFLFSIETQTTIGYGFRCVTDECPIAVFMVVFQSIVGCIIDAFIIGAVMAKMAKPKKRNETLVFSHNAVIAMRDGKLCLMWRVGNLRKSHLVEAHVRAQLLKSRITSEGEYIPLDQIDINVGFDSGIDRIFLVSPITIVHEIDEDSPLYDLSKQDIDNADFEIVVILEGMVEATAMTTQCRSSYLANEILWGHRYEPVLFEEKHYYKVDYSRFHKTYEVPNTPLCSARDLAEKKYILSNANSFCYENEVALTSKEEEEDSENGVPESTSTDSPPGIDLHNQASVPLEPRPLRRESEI
Procedure: Using whole-cell patch clamp, technique in HEK293T cells transfected with IRK1 or GIRK2 channels, it was determined that MPD does in fact modulate these channels. Addition of 100 mM MPD inhibits the inward currents of the IRK1 channel, without changing the reversal potential or altering inward rectification (FIG. 1e).
GIRK2c, GIRK4, IRK1, M2R and m-Phosducin were subcloned into PCDNA3.1 vector (Invitrogen). Point mutations were introduced by Quickchange site directed mutagenesis kit (Stratagene). The GIRK2 PIP mutant was generated by overlap-PCR method. Briefly, amino acid 216-NLRKSHL-222 (SEQ ID NO: 25) of IRK1 was swapped into 228-DLRNSHL-234 (SEQ ID NO: 26) of GIRK2, in the region designated βC-βD loop in the crystal structure. Mutations were confirmed by automated DNA sequencing methods.
HEK 293T cells were cultured in DMEM supplemented with 10% FBS, and 1× Glutamax (Invitrogen) in a humidified 37° incubator with 5% CO2. Cells were plated in a 12 well dish, and were transiently transfected using Lipofectamine 2000 (Invitrogen). After 12-24 hrs, cells were re-plated to 12-mm glass coverslips coated with poly-D-Lysine (20 microgram/ml).
HEK293 cells were transfected with 0.2 micrograms of channel cDNA. The cells were co-transfected with 0.04 micrograms of eYFP cDNA to identify transfected cells. 0.8 micrograms of Muscarinic Receptor 2 (M2R) was also co-transfected for experiments with Carbachol. For experiments with and without m-phosducin, 0.8 ug of m-phosducin cDNA was used versus a PCDNA3.1 vector control.
Whole-cell patch clamp recordings were performed 24-72 hrs after transfection. Borosilicate glass electrodes (Warner Instruments) of […] filled with intracellular solution (130 mM KCl, 20 mM NaCl, 5 mM EGTA, 2.56 mM K2ATP, 5.46 mM MgCl2, 0.30 mM Li2GTP, and 10 mM HEPES (pH 7.4)) was used. Membrane currents were recorded using Axopatch 200B (Axon Instruments) amplifier, adjusted electronically for cell capacitance and series resistance (80-100%), filtered at 1 kHz with an 8-pole Bessel filter and digitized at 5 kHz with a Digidata 1200 interface (Axon Instruments). The cells rapidly perfused with a 20 mM K^+ (20K) solution (20 mM KCl, 140 mM NaCl, 0.5 mM CaCl2, 2 mM MgCl2 and 10 mM HEPES (pH7.4)). Alcohols, 5 μM Carbachol, and 1 mM BaCl2 (diluted in 20K solution) were applied from outside the cell with the rapid perfusion system (Warner Instruments). Whole-cell currents were measured using a ramp protocol that holds at −40 mV, steps to −100 mV then ramps to +50 mV and repeats every 2 seconds. Current-voltage relationships also were obtained from the ramp protocol. This protocol was used to measure the inwardly rectifying currents at −100 mV and to ensure stability of recording by monitoring a reversal potential and inward rectification. Current density was measured by dividing inward current at −100 mV by membrane capacitance that was compensated during the recording. Basal currents were measured as the Ba^++ blocked inward currents at −100 mV. Alcohol and Carbachol modulated currents were measured by averaging two consecutive current readings upon reaching steady state, and subtracting the averaged basal current before and after the application of modulator. Pooled data are presented as Mean±SEM and evaluated for statistical significance by a 1-way ANOVA, followed by Bonferroni's multiple comparison post-hoc test.

Compound	modulation of GIRK2 L257W, percentage change from basal current (negative = inhibition) [1]	inhibition of IRK1 channel, percentage inhibition (IRK1 channel)	G-protein mediated activation, GIRK2 L257W, percentage change from basal current ([1]; 5 μM Carbachol, M2R co-transfected)	inhibition at 100000 µM (IRK1 channel; HEK-293T, 100 mM MPD, -100 mV, read-out: percent change of basal current, IRK)
1-propanol [1-PrOH]	57±6%	−12±2%	–	–
C[N+](C)(C)CCOC(N)=O [Carbachol]	–	–	12±2%	–
1-butanol [1-BuOH]	–	−20±3%	–	–
CCO [EtOH, ethanol]	34±3%	−5±1%	–	–
CC(O)CC(C)(C)O (racemic) [MPD, 2-methyl-2,4-pentanediol]	−97±4%	−25±3%	–	32.5 ± 3.9%
